Assays:
[1] = test system: histamine—induced lethality in guinea pigs; experiment: prevention of histamine-induced lethality in guinea pigs; format: in vivo; details: standard animal model
[2] = Stability testing for crystalline polymorph form 1; format: physicochemical; details: 25, 30 and 40° C. at relative humidities of 60%, 60% and 75%, respectively

In the case of `Clc1ccc2c(c1)CCc1cccnc1C2=C1CCNCC1` [form 1, 8-chloro-6,11-dihydro-11-(4-piperidylidene)-5H-benzo[5,6]cyclohepta[1,2-b]pyridine], the “antihistaminic properties: prevention of histamine—induced lethality” value [1] is reported as “demonstrated” and the “change from initial sample % form 1 and related compounds” value [2] is reported as < 1%.

Source: US6506767B1, “8-chloro-6,11-dihydro-11-(4-piperidylidine)-5H-benzo[5,6]cyclohepta[1-2-b] pyridine” (Schering Corporation, priority 1997, dated 2003)
